Experiments:
Mia-PaCa-2 cells = assay: Growth factor-induced proliferation (MTT), Mia-PaCa-2; format: cell-based, human; conditions: Mia-PaCa-2, growth factor alone (absence of Compound I), 72 hours, MTT
Description: (§1) Cell culture and MTT assay: Human pancreatic cancer cell lines are routinely grown in DMEM (Colo-357 and Mia-PaCa-2) or RPMI (Aspc-1, BxPc-3, Capan-1, and T3M4) supplemented with 10% FBS, 100 U/ml penicillin, and 100 μg/ml streptomycin (complete medium). To assess cell proliferation, the MTT test is employed. […] After 48 or 72 hours of incubation, 3-(4,5-methylthiazol-2-yl)-2,5-diphenyl-tetrazolium bromide (MTT) is added (50 μg/well) for 4 hours. Formazan products are solubilized with acidic isopropanol, and the optical density is measured at 570 nm. […] All experiments are performed in triplicate.
(§2) EGF-induced proliferation of both Mia-PaCa-2 and T3M4 cell lines in a dose-dependent manner is seen with maximal effects of +72% ±7.5% (Mia-PaCa-2) and +52% ±23% (T3M4). […] FGF-2 markedly stimulates cell growth in Mia-PaCa-2 cell lines with maximal effects of +79% ±6%, and only slightly stimulated T3M4 cell lines, with maximal effects of +7% ±4%. […] Both cell lines are less sensitive to IGF-1 stimulation compared with EGF and FGF-2, with maximal effects of +24% ±2% in Mia-PaCa-2 and +17% ±4% in. T3M4.

T3M4 cells = assay: Growth factor-induced proliferation (MTT), T3M4; format: cell-based, human; conditions: T3M4, growth factor alone (absence of Compound I), 72 hours, MTT
Description: as §1, §2

For “EGF: epidermal growth factor, EGF from Upstate Biotechnology”, the “Maximal effect of growth factor on cell growth” value (Mia-PaCa-2 cells) was “+72% ±7.5” and the “Maximal effect of growth factor on cell growth” value (T3M4 cells) was “+52% ±23”.

From patent publication US20060167006A1, “Method of treatment” (priority 2003, published 2006)
